Measured values: patent US8956662B2, “Phenylephrine pharmaceutical formulations and compositions for colonic absorption” (MSD Consumer Care, Inc., priority 2006, dated 2015)
Structures can show the parent of a compound that is named as a salt. Where two headings read alike, the source gives them in different places. Values belong to the compound of their own block, whether it stands above or below them.

How the values were obtained:
[1] = oral dosage forms; cited from earlier work
[2] = Bioavailability of phenylephrine: plasma levels after delivery to the colon via Enterion capsules or oral Sudafed PE; type: in vivo, human; details: for t1/2, unconjugated Phenylephrine / Tmax, unconjugated Phenylephrine: hydrochloride; for Tlag, unconjugated Phenylephrine / Tmax, unconjugated Phenylephrine: median (range); for AUC(0-t) / Cmax / bioavailability / concentration at 0.083 h / concentration at […] / concentration at 0.5 h / concentration at 1 h / concentration at 2 h / concentration at 3 h / concentration at 4 h / concentration at 6 h / concentration at 8 h / concentration at 12 h / concentration at 14 h / concentration at 16 h / concentration at 24 h: both sexes, human, plasma, oral; for Cmax: read-out: Cmax, unconjugated Phenylephrine; for bioavailability: read-out: Frel last (bioavailability relative to immediate release oral formulation), unconjugated Phenylephrine; for concentration at 0.083 h: 0.083 h post-dose; for concentration at 0.083 h / concentration at […] / concentration at 0.5 h / concentration at 1 h / concentration at 2 h / concentration at 3 h / concentration at 4 h / concentration at 6 h / concentration at 8 h / concentration at 12 h / concentration at 14 h / concentration at 16 h / concentration at 24 h: read-out: Mean plasma concentration (Unconjugated); for concentration at 0.5 h: 0.5 h post-dose; for concentration at 1 h: 1 h post-dose; for concentration at 2 h: 2 h post-dose; for concentration at 3 h: 3 h post-dose; for concentration at 4 h: 4 h post-dose; for concentration at 6 h: 6 h post-dose; for concentration at 8 h: 8 h post-dose; for concentration at 12 h: 12 h post-dose; for concentration at 14 h: 14 h post-dose; for concentration at 16 h: 16 h post-dose; for concentration at 24 h: 24 h post-dose
Protocol: The following study was conducted to examine the phenylephrine absorption behavior in GI tract. […] Enterion™ capsules (Pharmaceutical Profiles Ltd, UK) allow for deployment of drug delivery at a desired location within the GI tract. To determine the capsules had reached a desired location, preparations of regimens A and C were administered orally with 210 mL water followed by a radiolabeled drink containing 4 MBq 99m-Tc-diethylenetriaminepetaacetic acid (DTPA) in 30 mL water so that the location of the ingested materials could be visualized by scintigraphic imaging. […] The blood samples were collected into a tube containing lithium heparin, centrifuged within 30 minutes at 1500 g for 15 minutes at 4 degrees Celsius. The plasma was analyzed for phenylephrine in its conjugated and unconjugated forms. The amount of conjugated phenylephrine was calculated by subtracting the amount of unconjugated phenylephrine assayed from the amount of total phenylephrine assayed.
The relative bioavailability, shown as Frel last in the table, indicates the bioavailability of phenylephrine administered to the colon relative to that administered as an immediate release oral formulation.

[3] = conventional tablet formulation; cited from earlier work
[4] = 10 mg PE-colon (Regimen A) n = 8
[5] = 30 mg PE-colon (Regimen C) n = 6
[6] = 10 mg PE-colon (Regimen A) n = 8, mean ± SD
[7] = 10 mg to colon via Enterion capsule (Regimen A)
[8] = 30 mg PE-colon (Regimen C) n = 6, mean ± SD
[9] = 30 mg to colon via Enterion capsule (Regimen C)

- t1/2, unconjugated Phenylephrine ([2]; 10 mg PE-colon (Regimen A) n = 2, mean): 8.19 (n = 2) hours
- Tlag, unconjugated Phenylephrine [2, 4]: 0.0800 (0–0.750)a hours
- Tmax, unconjugated Phenylephrine [2, 4]: 1.50 (0.250–3.00)a hours
- active unconjugated form as share of total phenylephrine concentration over time in plasma (AUC0-∞ unconjugated / AUC0-∞ total) ([2]; 10 mg phenylephrine in immediate release form): ≤ 0.5%
- active unconjugated form as share of total phenylephrine concentration over time in plasma (AUC0-∞ unconjugated / AUC0-∞ total) ([2]; 10 mg phenylephrine released in the colon): approximately 2.2%
- t1/2, unconjugated Phenylephrine ([2]; 30 mg PE-colon (Regimen C) n = 3, mean ± SD): 10.8 ± 7.99 (n = 3) hours
- Tlag, unconjugated Phenylephrine [2, 5]: 0 (0–0.750)a hours
- Tmax, unconjugated Phenylephrine [2, 5]: 2.25 (0.750–6.03)a hours
- active unconjugated form as share of total phenylephrine concentration over time in plasma (AUC0-∞ unconjugated / AUC0-∞ total) ([2]; 30 mg phenylephrine released in the colon): Approximately 5%
- increase of bioavailability versus oral immediate release form ([2]; absorption from the lower intestinal tract): by a factor of three
- AUC(0-t) ([2]; 10 mg, 10 mg PE-colon (Regimen A) n = 2, mean, read-out: AUC0–24, unconjugated Phenylephrine (Table 13)): 2.87 ng·h/mL
- AUC(0-t) ([2]; 10 mg, 10 mg phenylephrine hydrochloride delivered to the colon, read-out: mean AUC0-24 value of unconjugated phenylephrine): 1.58 ± 0.915 ng·h/mL
- AUC(0-t) ([2]; 30 mg, 30 mg PE-colon (Regimen C) n = 3, mean ± SD, read-out: AUC0–24, unconjugated Phenylephrine (Table 13)): 8.94 ± 5.16 ng·h/mL
- AUC(0-t) ([2]; 30 mg, 30 mg phenylephrine hydrochloride delivered to the colon, read-out: mean AUC0-24 value of unconjugated phenylephrine): 5.17 ± 1.56 ng·h/mL
- Cmax [2, 6]: 0.4 ± 0.454 ng/mL
- bioavailability [2, 6]: 332 ± 232%
- concentration at 0.083 h [2, 7]: 0.0586 ng/mL
- concentration at […] ([2]; 10 mg to colon via Enterion capsule (Regimen A), 0.25 h post-dose): 0.304 ng/mL
- concentration at 0.5 h [2, 7]: 0.145 ng/mL
- concentration at […] ([2]; 10 mg to colon via Enterion capsule (Regimen A), 0.75 h post-dose): 0.125 ng/mL
- concentration at 1 h [2, 7]: 0.135 ng/mL
- concentration at […] ([2]; 10 mg to colon via Enterion capsule (Regimen A), 1.5 h post-dose): 0.16 ng/mL
- concentration at 2 h [2, 7]: 0.187 ng/mL
- concentration at […] ([2]; 10 mg to colon via Enterion capsule (Regimen A), 2.5 h post-dose): 0.182 ng/mL
- concentration at 3 h [2, 7]: 0.165 ng/mL
- concentration at 4 h [2, 7]: 0.15 ng/mL
- concentration at 6 h [2, 7]: 0.111 ng/mL
- concentration at 8 h [2, 7]: 0.068 ng/mL
- concentration at 12 h [2, 7]: 0.058 ng/mL
- concentration at 14 h [2, 7]: 0.059 ng/mL
- concentration at 16 h [2, 7]: 0.064 ng/mL
- concentration at 24 h [2, 7]: 0.059 ng/mL
- Cmax [2, 8]: 0.468 ± 0.174 ng/mL
- bioavailability [2, 8]: 333 ± 140%
- concentration at 0.083 h [2, 9]: 0.0458 ng/mL
- concentration at […] ([2]; 30 mg to colon via Enterion capsule (Regimen C), 0.25 h post-dose): 0.0784 ng/mL
- concentration at 0.5 h [2, 9]: 0.229 ng/mL
- concentration at […] ([2]; 30 mg to colon via Enterion capsule (Regimen C), 0.75 h post-dose): 0.242 ng/mL
- concentration at 1 h [2, 9]: 0.253 ng/mL
- concentration at […] ([2]; 30 mg to colon via Enterion capsule (Regimen C), 1.5 h post-dose): 0.348 ng/mL
- concentration at 2 h [2, 9]: 0.354 ng/mL
- concentration at […] ([2]; 30 mg to colon via Enterion capsule (Regimen C), 2.5 h post-dose): 0.352 ng/mL
- concentration at 3 h [2, 9]: 0.324 ng/mL
- concentration at 4 h [2, 9]: 0.309 ng/mL
- concentration at 6 h [2, 9]: 0.311 ng/mL
- concentration at 8 h [2, 9]: 0.269 ng/mL
- concentration at 12 h [2, 9]: 0.195 ng/mL
- concentration at 14 h [2, 9]: 0.204 ng/mL
- concentration at 16 h [2, 9]: 0.196 ng/mL
- concentration at 24 h [2, 9]: 0.157 ng/mL
- maximal plasma concentration of unconjugated phenylephrine as percentage of maximal plasma concentration of total phenylephrine ([2]; immediate release formulation by oral administration): less than 0.7%
Compound: CNC[C@H](O)c1cccc(O)c1 [Phenylephrine hydrochloride, phenylephrine hydrochloride]
- half-life of active phenylephrine in plasma [1]: approximately 2 hours

Compound: CCOC(=O)N1CCC(=C2c3ccc(Cl)cc3CCc3cccnc32)CC1 [loratadine]
- time the antihistaminic effect lasts [3]: > 24 h
